# According to US20250151724A1, “Liquid Soil Treatments Containing Choline” (Harrell's, LLC, priority 2023, published 2025):
# System: creeping bentgrass putting greens
# Assay: Experiment No. 5: putting green field trial of Fleet100 and choline alone or in combination
# Assay type: in vivo
# Details: Fleet100 5 fl oz, choline 0.25 oz/1000 ft^2 monthly
# Experimental: There were 4 treatments with 4 replications. Plot size was 5×6 ft. Regular mowing and irrigation were performed. A randomized block design was used. Fleet® 100 was supplied by […]) and choline from Sigma-Aldrich, Inc. (St. Louis, MO) were used in this study. The treatments were as follows: • 1. […] N/1,000 ft^2 biweekly • 3. […] N/1,000 ft^2 biweekly • 4. […] The trial lasted for 12 weeks and a total of 3 treatment applications. […] Leaf chlorophyll content. Leaf samples were collected biweekly and chlorophyll content was determined using the spectrophotometer method described by Zhang et al. (2005). • e. Volumetric water content. […] At day 9 of the dry down cycles, leaf samples were collected and leaf proline content was analyzed. Irrigation was resumed after day 9 of each dry down cycle. […] Leaf proline content. Leaf samples were collected at the end of each dry down cycle and proline content was measured by using the method described by Wu et al. (2017). • g. Root characteristics, biomass, and viability. […] The root length, root diameter, root surface area, and root volume were analyzed using WinRHIZO technology. Briefly, after fine cleaning of each root sample, the sample from each plot was divided into multiple subsamples. Each subsample was scanned using WinRHIZO and all root morphological parameters were generated and analyzed. In addition, root viability was analyzed using TTC method (Zhang et al., 2017). Root viability is a good indicator of root function.
smiles,measurement,setting,value
"C[N+](C)(C)CCO.[Cl-] [Choline, choline chloride]",Chlorophyll Content,day 0,2.45a mg/g fresh weight
same,"Leaf color (1-9, 9 = dark green)",day 0,7.5a
same,Photochemical Efficiency (Fv/Fm),day 0,0.720a
same,"Turf quality (1-9, 9 = best)",day 0,7.5a
same,Chlorophyll Content,day 14,2.90a mg/g fresh weight
same,"Leaf color (1-9, 9 = dark green)",day 14,7.6ab
same,Photochemical Efficiency (Fv/Fm),day 14,0.696a
same,"Turf quality (1-9, 9 = best)",day 14,7.4a
same,"Leaf color (1-9, 9 = dark green)",day 22,7.4a
same,Photochemical Efficiency (Fv/Fm),day 22,0.664a
same,"Turf quality (1-9, 9 = best)",day 22,6.8ab
same,Proline,day 22 (end of 1st dry-down cycle),467.0a ug/g FW
same,Chlorophyll Content,day 28,3.85a mg/g fresh weight
same,"Leaf color (1-9, 9 = dark green)",day 28,7.8a
same,Photochemical Efficiency (Fv/Fm),day 28,0.761a
same,"Turf quality (1-9, 9 = best)",day 28,7.6b
same,Photochemical Efficiency (Fv/Fm),day 40,0.714a
same,Chlorophyll Content,day 42,3.03a mg/g fresh weight
same,"Leaf color (1-9, 9 = dark green)",day 42,6.9ab
same,Photochemical Efficiency (Fv/Fm),day 42,0.634a
same,"Turf quality (1-9, 9 = best)",day 42,6.5b
same,Proline,day 42 (end of 2nd dry-down cycle),538.0a ug/g FW
same,Chlorophyll Content,day 56,3.46a mg/g fresh weight
same,"Leaf color (1-9, 9 = dark green)",day 56,7.7ab
same,Photochemical Efficiency (Fv/Fm),day 56,0.729a
same,"Turf quality (1-9, 9 = best)",day 56,7.4b
same,Chlorophyll Content,day 70,2.79b mg/g fresh weight
same,"Leaf color (1-9, 9 = dark green)",day 70,7.4ab
same,Photochemical Efficiency (Fv/Fm),day 70,0.733ab
same,"Turf quality (1-9, 9 = best)",day 70,7.2ab
same,Chlorophyll Content,day 84,2.57a mg/g fresh weight
same,"Leaf color (1-9, 9 = dark green)",day 84,7.4b
same,Photochemical Efficiency (Fv/Fm),day 84,0.733ab
same,"Turf quality (1-9, 9 = best)",day 84,7.3b
same,Root Biomass,end of trial,2.14ab mg/cm^3
same,Root Diameter,end of trial,0.187b mm
same,Root Length,end of trial,118.2a cm/cm^3
same,Root SA,end of trial,7.02ab cm^2/cm^3
same,Root Volume,end of trial,33.4ab cm^3/dm^3
same,Root Viability,"end of trial, TTC method",0.49a A490/g FW
